≈ marks a conversion by molar mass, not a printed value.
Legend:
[1] = system: Aspergillus fumig.; assay: Antimycotic in vitro activity, series dilution test (MIC); type: cell-based, Aspergillus fumigatus; settings: 5×10^4 germs/ml, Sabouraud's milieu d'épreuve, 20° C., 96 hours, read-out: MIC values in γ/ml of nutrient medium, Aspergillus fumig.
Experimental: (§1) Antimycotic in vitro activity Description of the experiment: The in vitro tests were carried out in a series dilution test with germ inocula of an average of 5×10^4 germs/ml of substrate. The nutrient medium was (a) for dermatophytes and moulds: Sabouraud's milieu d'/e/ preuve and The incubation temperature was 20° C. and the duration of incubation was 24 to 96 hours, in the case of yeasts, and 96 hours in the case of dermatophytes and moulds.

[2] = system: Trichophyton mentagr.; assay: as above; type: cell-based, Trichophyton mentagrophytes; settings: 5×10^4 germs/ml, Sabouraud's milieu d'épreuve, 20° C., 96 hours, read-out: MIC values in γ/ml of nutrient medium, Trichophyton mentagr.
Experimental: as §1

[3] = system: Candida albicans; assay: as above; type: cell-based; settings: 5×10^4 germs/ml, meat extract/glucose broth, 20° C., 24 to 96 hours, read-out: MIC values in γ/ml of nutrient medium, Candida albicans
Experimental: as §1, with “(b)” for “(a)”, “yeasts: meat extract/glucose broth.” for “dermatophytes and moulds: Sabouraud's milieu d'/e/ preuve and”

[4] = system: Torulopsis glabrata; assay: as above; type: cell-based; settings: Nakaseomyces glabratus, 5×10^4 germs/ml, meat extract/glucose broth, 20° C., 24 to 96 hours, read-out: MIC values in γ/ml of nutrient medium, Torulopsis glabrata
Experimental: as §1, with “(b)” for “(a)”, “yeasts: meat extract/glucose broth.” for “dermatophytes and moulds: Sabouraud's milieu d'/e/ preuve and”

[5] = system: Microsporum canis; assay: as above; type: cell-based; settings: 5×10^4 germs/ml, Sabouraud's milieu d'épreuve, 20° C., 96 hours, read-out: MIC values in γ/ml of nutrient medium, Microsporum canis
Experimental: as §1

[6] = system: dermatophytes and moulds, yeasts; assay: Antimycotic in vitro activity, overall comparison with known compounds; type: cell-based; settings: in vitro series dilution test
Experimental: Antimycotic in vitro activity
Description of the experiment:
The in vitro tests were carried out in a series dilution test with germ inocula of an average of 5×10^4 germs/ml of substrate. The nutrient medium was
(a) for dermatophytes and moulds:
Sabouraud's milieu d'/e/ preuve and
meat extract/glucose broth.
The incubation temperature was 20° C. and the duration of incubation was 24 to 96 hours, in the case of yeasts, and 96 hours in the case of dermatophytes and moulds.

SMILES	MIC [1] [µg/mL]	MIC [2] [µg/mL]	MIC [3] [µg/mL]	MIC [4] [µg/mL]	MIC [5] [µg/mL]	antimycotic action compared with compounds (A), (B), (C) and (D) [6]
CC(C)(C)C(O)C(=Cn1ccnc1)Oc1ccc(F)cc1 (centres unmarked) [(A), reference compound]	> 64	1 (≈ 3.44 µM)	32 (≈ 110 µM)	64 (≈ 220 µM)	64 (≈ 220 µM)	
CC(C)(C)C(O)C(=Cn1ccnc1)Oc1ccc(-c2ccccc2)cc1 (centres unmarked) [(B), reference compound]	> 64	< 1	32 (≈ 91.8 µM)	> 64	32 (≈ 91.8 µM)	
CC(C)(C)C(O)C(=Cn1ccnc1)Oc1ccc(Cl)cc1Cl (centres unmarked) [(C), reference compound]	> 64	< 1	16 (≈ 46.9 µM)	16 (≈ 46.9 µM)	32 (≈ 93.8 µM)	
CC(C)(C)C(O)C(=Cn1cncn1)Oc1ccc(Cl)cc1Cl (centres unmarked) [(D), reference compound]	64 (≈ 187 µM)	< 1	32 (≈ 93.5 µM)	32 (≈ 93.5 µM)	64 (≈ 187 µM)	
CC1(C)CCOC1=C(Oc1ccc(Cl)cc1)n1ccnc1 [Example 1, (4-chlorophenoxy)-(imidazol-1-yl)-3,3-dimethyltetrahydrofuran-2-ylidene-methane]	< 1	< 1	8 (≈ 26.2 µM)	2 (≈ 6.56 µM)	< 1	better antimycotic action
CC1(C)CCOC1=C(Oc1ccc(F)cc1)n1ccnc1 [Example 2]	2 (≈ 6.94 µM)	< 1	< 1	2 (≈ 6.94 µM)	< 1	better antimycotic action
CC1(C)CCOC1=C(Oc1ccc(Cl)cc1Cl)n1ccnc1 [Example 3]	< 1	< 1	< 1	< 1	< 1	better antimycotic action
CC1(C)CCOC1=C(Oc1ccc(-c2ccccc2)cc1)n1ccnc1 [Example 7]	< 1	< 1	< 1	< 1	< 1	better antimycotic action
CC1(C)CCOC1=C(Oc1ccc(Cl)cc1)n1cncn1 [Example 11]	> 64	< 1	4 (≈ 13.1 µM)	16 (≈ 52.3 µM)	16 (≈ 52.3 µM)	better antimycotic action
